From ChEMBL document CHEMBL4184089 (Bioorg Med Chem Lett, 2018) come the findings set out here.

The structures appear in SMILES notation. pIC50: −log10 of the molar value. Some results are limits rather than exact numbers.

For test [1], the target named is Sphingosine 1-phosphate receptor 1 (Homo sapiens, UniProt P21453). As to the kind of experiment: Displacement of [32P]S1P from recombinant human S1PR1 expressed in CHOK1 cell membranes pretreated for 30 mins followed by [32P]S1P addition measured after 60 mins by scintillation counting method.
Sphingosine 1-phosphate receptor 1, sequence (P21453 whole entry): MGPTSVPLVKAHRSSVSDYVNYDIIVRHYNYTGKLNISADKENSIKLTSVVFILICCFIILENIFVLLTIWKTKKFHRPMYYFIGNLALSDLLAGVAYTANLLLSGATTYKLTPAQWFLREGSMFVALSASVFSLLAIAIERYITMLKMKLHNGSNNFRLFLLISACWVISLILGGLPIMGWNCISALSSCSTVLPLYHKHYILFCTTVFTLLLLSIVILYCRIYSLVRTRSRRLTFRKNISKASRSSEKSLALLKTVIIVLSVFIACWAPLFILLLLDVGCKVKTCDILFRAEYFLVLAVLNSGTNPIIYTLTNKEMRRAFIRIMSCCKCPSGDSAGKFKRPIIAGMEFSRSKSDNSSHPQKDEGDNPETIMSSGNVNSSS
Test [2] addresses Sphingosine 1-phosphate receptor 3 (Homo sapiens, UniProt Q99500). Nature of the test: Displacement of [32P]S1P from recombinant human S1PR3 expressed in Chem1 cell membranes co-expressing Galpha15 pretreated for 30 mins followed by [32P]S1P addition measured after 60 mins by scintillation counting method.
The target of test [3] is Sphingosine 1-phosphate receptor 2 (Homo sapiens, UniProt O95136). As to the kind of experiment: Displacement of [32P]S1P from recombinant human S1PR2 expressed in Chem1 cell membranes co-expressing Galpha15 pretreated for 30 mins followed by [32P]S1P addition measured after 60 mins by scintillation counting method.
Sphingosine 1-phosphate receptor 2, sequence (O95136 whole entry): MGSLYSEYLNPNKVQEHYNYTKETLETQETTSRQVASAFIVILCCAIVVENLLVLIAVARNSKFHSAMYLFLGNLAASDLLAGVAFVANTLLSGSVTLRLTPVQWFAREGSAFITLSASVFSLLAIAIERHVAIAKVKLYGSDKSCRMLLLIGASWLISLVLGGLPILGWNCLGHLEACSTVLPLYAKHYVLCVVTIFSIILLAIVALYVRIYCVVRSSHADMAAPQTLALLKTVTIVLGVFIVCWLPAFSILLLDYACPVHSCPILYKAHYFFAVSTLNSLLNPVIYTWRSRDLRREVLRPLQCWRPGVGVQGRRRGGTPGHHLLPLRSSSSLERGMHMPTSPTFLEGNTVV
Test [4] concerns the target Sphingosine 1-phosphate receptor 5 (Homo sapiens, UniProt Q9H228). As to the kind of experiment: Displacement of [32P]S1P from recombinant human S1PR5 expressed in cell membranes pretreated for 30 mins followed by [32P]S1P addition measured after 60 mins by scintillation counting method.
In test [5] the target is T1, Sphingosine 1-phosphate receptor 4 (Homo sapiens, UniProt O95977).
T1 sequence (O95977 whole entry): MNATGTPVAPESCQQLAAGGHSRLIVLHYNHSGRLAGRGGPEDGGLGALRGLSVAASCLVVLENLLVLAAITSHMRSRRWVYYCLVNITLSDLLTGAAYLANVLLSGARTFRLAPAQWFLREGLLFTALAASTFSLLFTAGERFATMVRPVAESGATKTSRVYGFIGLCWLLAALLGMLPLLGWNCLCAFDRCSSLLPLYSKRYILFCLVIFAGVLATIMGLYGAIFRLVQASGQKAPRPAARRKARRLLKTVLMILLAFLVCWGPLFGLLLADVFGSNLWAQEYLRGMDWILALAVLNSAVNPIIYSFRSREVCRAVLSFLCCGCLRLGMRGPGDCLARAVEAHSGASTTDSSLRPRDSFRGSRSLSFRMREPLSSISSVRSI
As to the kind of experiment: Displacement of [32P]S1P from recombinant human S1PR4 expressed in cell membranes pretreated for 30 mins followed by [32P]S1P addition measured after 60 mins by scintillation counting method.

Sphingosine 1-phosphate receptor 3, sequence (Q99500 whole entry): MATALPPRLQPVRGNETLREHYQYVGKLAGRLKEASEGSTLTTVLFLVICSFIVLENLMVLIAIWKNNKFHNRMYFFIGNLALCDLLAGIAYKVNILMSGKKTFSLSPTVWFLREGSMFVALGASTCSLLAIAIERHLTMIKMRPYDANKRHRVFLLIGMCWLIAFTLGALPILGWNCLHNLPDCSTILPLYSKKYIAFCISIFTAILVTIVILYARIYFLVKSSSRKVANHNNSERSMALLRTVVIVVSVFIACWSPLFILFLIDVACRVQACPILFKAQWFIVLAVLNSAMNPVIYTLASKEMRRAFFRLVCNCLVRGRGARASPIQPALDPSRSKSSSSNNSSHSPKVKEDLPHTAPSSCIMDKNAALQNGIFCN
Sphingosine 1-phosphate receptor 5, sequence (Q9H228 whole entry): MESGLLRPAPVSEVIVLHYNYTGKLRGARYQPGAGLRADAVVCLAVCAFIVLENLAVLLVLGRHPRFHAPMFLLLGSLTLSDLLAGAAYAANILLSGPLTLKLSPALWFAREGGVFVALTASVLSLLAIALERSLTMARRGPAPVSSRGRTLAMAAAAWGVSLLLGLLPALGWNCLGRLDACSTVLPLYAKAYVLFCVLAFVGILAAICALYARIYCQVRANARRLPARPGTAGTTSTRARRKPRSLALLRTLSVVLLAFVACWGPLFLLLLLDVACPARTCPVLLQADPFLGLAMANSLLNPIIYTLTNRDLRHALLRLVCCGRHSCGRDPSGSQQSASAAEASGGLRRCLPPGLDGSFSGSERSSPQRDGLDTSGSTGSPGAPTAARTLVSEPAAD

For `Cc1nn(C)c2nc(NNC(=O)Nc3cc(Cl)nc(Cl)c3)cc(C(C)C)c12`, the pIC50 in test [1] and in test [2] was less than 6.00 each time.
As for `Cc1nn(C)c2nc(NNC(=O)Nc3cc(Cl)n4ccnc4c3)cc(C(C)C)c12`, in test [3], the pIC50 is less than 6.00.
For the compound `Cc1nn(C)c2nc(NNC(=O)Nc3cc(Cl)nc(OC(C)C)c3)cc(C(C)C)c12`, the pIC50 in test [1] is less than 6.00; in test [4], less than 6.00; in test [5], less than 6.00; in test [2], less than 6.00; in test [3], 7.54.
On to `COc1cc(NC(=O)NC(=O)c2cc(C(F)(F)F)c3c(C)nn(C)c3n2)cc(Cl)n1`, for which the pIC50 in test [3] was less than 6.00.
As to `COc1cc(NC(=O)NC(=O)c2cc(C(C)C)c3c(n2)c(C)nn3C)cc(Cl)n1`, the pIC50 in test [3] is less than 6.00.
Turning to `COc1cc(-c2nnc(-c3cc(C(C)C)c4c(C)nn(C)c4n3)[nH]2)cc(Cl)n1`, the pIC50 in test [3] was less than 6.00.
Still for that read-out and setting: the value for `Cc1n[nH]c2nc(C(=O)NC(=O)Nc3cc(Cl)nc(Cl)c3)cc(C(F)(F)F)c12` was less than 6.00; that for `Cc1nn(C)c2nc(C(=O)NC(=O)Nc3cc(Cl)nc(Cl)c3)cc(C(F)(F)F)c12` was less than 6.00; that for `COc1cc(NC(=O)NC(=O)c2cc(C(F)(F)F)c3c(C)n[nH]c3n2)cc(Cl)n1` was less than 6.00.
For the compound `Cc1nn(C)c2nc(NNC(=O)Nc3cc(Cl)nc(OCC4CC4)c3)cc(C(C)C)c12`, the pIC50 in test [1] was less than 6.00; in test [4] it was less than 6.00; in test [5] it was less than 6.00; in test [2], less than 6.00; in test [3], 7.25.
On to `Cc1nn(C)c2nc(NNC(=O)Nc3nc4c(Cl)nc(Cl)cc4[nH]3)cc(C(C)C)c12`, for which the pIC50 in test [3] was less than 6.00.
`COc1cc(-c2nc(-c3cc(C(C)C)c4c(C)nn(C)c4n3)no2)cc(Cl)n1`: the pIC50 in test [3] was less than 6.00.

One may read the pIC50 as the negative decadic logarithm of the IC50, by convention in mol/L.
